Results as given in US20260373283A1, “LIPID NANOPARTICLES AND METHODS OF USING THE SAME FOR TREATING CELL PROLIFERATIVE DISEASES AND DISORDERS” (Northwestern University, priority 2022, published 2026).

Experiments:
CT-2A glioma [1] = assay: survival with Stupp treatment (RT plus TMZ); format: in vivo, mouse; conditions: RT+TMZ (3 Gy×3; TMZ 50 mg/kg×3 i.p.); control 27.5 days
Description: FIG. 15. B-LNP treatment improves antitumor effects of RT plus concomitant adjuvant TMZ in GBM-bearing mice. Survival curves of C57 mice received intracranial implantation of 5×10^4 CT-2A cells and two administrations of saline, B-LNP/diABZI (0.25 mg/kg diABZI), or a combination of free diABZI and therapeutic antibodies (αPD-L1+αCD47) (referred to as cocktails) through implanted cannula. Selected groups of mice also received RT (3 Gy×3) plus TMZ through intraperitoneal injection (50 mg/kg×3). n=7-10 mice per group. **, p<0.01; determined by Log-rank test for groups with proportional hazards and Renyi statistics for groups with crossing hazards. p values were adjusted by Bonferroni correction.
In vivo B-LNP/diABZI combined with Stupp treatment. C57BL/6 mice with intracranially implanted CT-2A (5×10^4 cells per mouse) were randomly grouped and received a daily dose of brain-focused irradiation at 3 Gy and TMZ at 50 mg per kg intraperitoneally for three consecutive days starting on the seventh day after tumor cell implantation. Certain groups of mice also received B-LNP/diABZI (0.25 mg diABZI per kg) or a combination of free diABZI and therapeutic antibodies (αPD-L1+αCD47) on the ninth and thirteenth day after tumor implantation through intracranially implanted cannula. All mice were followed for their survival following outlined endpoint protocols.

TAMCs [2] = assay: ARG1, CD206, CD86 expression in TAMCs by flow cytometry; format: cell-based, mouse; conditions: 24 h post-treatment
Description: (§1) BMDM, bone marrow-derived macrophage. […] FIG. 10E, Cytotoxicity of diABZI to T cells was tested by Annexin V staining using flow cytometry 48 h after treatment with diABZI at 200 nM.
(§2) In vitro analysis of diABZI effects on TAMC and T cell. In vitro generated TAMCs (1×10^6 cells/well) in 6-well plate were treated with diABZI at 200 nM. After 6 h of treatment, cells were washed and collected for RNA isolation using the RNEasy Plus Mini Kit (Qiagen). Total RNA was quantified by Nanodrop (Thermo Scientific), and cDNA was synthesized using the iScript cDNA synthesis kit (Bio-Rad). Gene expression was analyzed by quantitative PCR analysis (Bio-Rad). Alternatively, flow cytometric analysis was performed 24 h after treatment. To determine the cytotoxicity of diABZI to T cells, T cells were isolated using mouse T cell isolation kit (STEMCELL Technologies) and seeded at 2×10^5 cells/well in 96-well U bottom plates with the addition of Dynabeads mouse T cell activator CD3/CD28 (Fisher) and IL-2 (PeproTech) at 50 U/ml. Cells were treated with diABZI at 200 nM for 48 h and collected for annexin V assay (BioLegend) using flow cytometry.

[3] = tested on: CD8+ T cells in CT-2A tumors; assay: T cell infiltration to brain tumors after systemic delivery; format: in vivo, mouse; conditions: i.v. 2.5 mg/kg diABZI with fractionated RT
Description: FIG. 16. Systemic nanoparticle delivery of diABZI enhances T cell infiltration to brain tumors. C57 mice received intracranial implantation of 7.5×10^4 CT-2A cells, RT (3 Gy×3), and two administrations of saline, free diABZI, or P-LNP/diABZI (2.5 mg/kg diABZI) through intravenous injections. Freshly dissected brains were analyzed by flow cytometry for T cell infiltration. Data are represented as mean±SEM; n=5. *, p<0.05; **, p<0.01; determined by determined by one-way ANOVA with Tukey's multiple comparisons test.
In vivo nanoparticle treatment through systemic delivery. C57BL/6 mice with intracranially implanted CT-2A (7.5×10^4 cells per mouse) were randomly grouped and treated with saline or P-LNP/diABZI (2.5 mg diABZI per kg) through intravenous administration on the ninth, fourteenth, and nineteenth day after tumor implantation. Selected groups of mice also received brain-focused radiotherapy for three consecutive days starting on the sixth day post-tumor implantation. […] Tumor burden was analyzed by hematoxylin and eosin (H&E) staining. Therapeutic effects of P-LNP/diABZI was similarly evaluated in mice implanted with PF8 cells (7.5×10^4 cells per mouse) and received RT and intravenous administrations of saline or P-LNP/diABZI (2.5 mg diABZI per kg) on the eighth and thirteenth day after tumor implantation.

TAMCs [4] = assay: pro-inflammatory gene expression in TAMCs by qPCR; format: cell-based, mouse; conditions: diABZI 200 nM, 6 h
Description: as §2

T cells = assay: cytotoxicity to T cells by Annexin V staining; format: cell-based, mouse; conditions: 200 nM, 48 h
Description: as §1, §2

CT-2A glioma [5] = assay: survival, CT-2A-bearing mice, systemic delivery with RT; format: in vivo, mouse; conditions: i.v. 2.5 mg/kg diABZI with fractionated RT
Description: FIGS. 6A-6F. Systemic nanoparticle delivery of diABZI potentiates anti-glioma effects of RT. FIGS. 6A-6E, C57 mice received intracranial implantation of 7.5×10^4 CT-2A cells and three administrations of saline, free diABZI, or P-LNP/diABZI (2.5 mg/kg diABZI) through intravenous injections. Selected groups of mice received RT (3 Gy×3) as monotherapy or combination therapy. FIG. 6A, Survival curves of CT-2A-bearing C57 mice received different treatments. n=6-7 mice per group. Survival curves were compared using Log-rank test for those with proportional hazards and Renyi statistics for those with crossing hazards with p values adjusted by Bonferroni correction. […] Tumor burden in control and LTS mice were evaluated through H&E staining. FIG. 6C, 100 d post-rechallenge, freshly dissected brains from LTS, age-matched tumor-bearing mice, and age-matched non-tumor control mice were analyzed by flow cytometry for immune composition and CD8^+ T cell phenotypes. Data are represented as mean±SEM; n=5. *, p<0.05; **, p<0.01; determined by Student's t-test. […] FIG. 6D, Histology of the brains was evaluated by H. E. staining. […] FIG. 6E, Freshly dissected brains were analyzed by flow cytometry for immune composition, TAMC, and CD8^+ T cell phenotypes. Data are represented as mean±SEM; n=5. **, p<0.01; ***, p<0.001; ****, p<0.0001; determined by Student's t-test. […]

SMILES	median survival (CT-2A glioma [1])	ARG1 and CD206 in TAMCs (TAMCs [2])	CD86 in TAMCs (TAMCs [2])	CD8+ T cell tumor infiltration [3]	expression of pro-inflammatory genes in TAMCs (type I IFNs, CCL5, CXCL10) (TAMCs [4])	cytotoxicity to T cells (T cells)	animal survival in CT-2A glioma model (CT-2A glioma [5])
Cn1nnc2c(C(N)=O)ncn2c1=O [TMZ, temozolomide]	36 days						
CCn1nc(C)cc1C(=O)Nc1nc2cc(C(N)=O)cc(OC)c2n1C/C=C/Cn1c(NC(=O)c2cc(C)nn2CC)nc2cc(C(N)=O)cc(OCCCN3CCOCC3)c21 [diABZI]		reduced levels of immunosuppressive factors ARG1 and CD206	higher levels of activation factor CD86	not free drugs, led to a dramatically enhanced CD8^+ T cell tumor infiltration	dramatically increased expression of pro-inflammatory genes in TAMCs	causes cytotoxicity to T cells	not free drugs, led to a dramatically enhanced CD8^+ T cell tumor infiltration (FIG. 16) and animal survival
